We go through 23 compounds from patent publication US7879876B2, “Sulfonamide derivatives and use thereof for the modulation of metalloproteinases” (Merck Serono SA, priority 2005, dated 2011).

The target of assay [1] is human ADAM17 (TACE) (Homo sapiens, UniProt P78536). Kind of assay: TACE enzyme inhibition assay. The assay is classed as biochemical. As for the experimental part: Compounds of the invention were tested to assess their activities as inhibitors of MMP-1, MMP-2, MMP-9, MMP-14, MMP-12 and TACE. MMP-9 Assay Protocol
Compounds of the invention can be tested for inhibitory activity against human ADAM17 in an assay using human Mca-(endo-1a-Dap(Dnp)-TNF-alpha(−5 to +6)amide as substrate (FEBS Letters, 2000, 275-279).
Stock solutions are prepared as followed: • Assay Buffer: 20 mM Hepes pH 7.5 (Fluka) containing 0.05% Brij 35 (Fluka) • Substrate: 6.1 mM human Mca-(endo-1a-Dap(Dnp)-TNF-alpha(−5 to +6)amide (Bachem) stock solution in 100% DMSO (stored at −20° C.); diluted to 5 μM in assay buffer. • Enzyme: Recombinant human ADAM17, appropriately diluted in assay buffer (1.5 μg/ml).
Test Compounds are prepared initially as 10 mM compound solution in 100% DMSO, diluted to 1 mM in 100% DMSO, then serially diluted 3-fold in 100% DMSO across a 96-well microtitre plate. Assay concentration range is typically between 100 μM to 0.01 nM. The assay is performed in a total volume of 100 μL per well in 96-well microtitre plates. Appropriate concentrations of test compounds dissolved in 10 μL of DMSO are added to the wells, followed by substrate solution (50 μL, 5 μM prepared by dilution of DMSO stock in assay buffer) and enzyme solution (40 μL). For each as say ten concentrations of test compound are examined in […]. Control wells lack either enzyme or test compound. The reactions are incubated at room temperature for 1.5 hours. The fluorescence at 405 nm is measured immediately with a fluorometer using 355 nm excitation, without stopping the reaction.
The effect of the test compound is determined from the dose response curve generated by the 10 duplicate concentrations of inhibitor. The IC50 (the concentration of compound required to give a 50% decrease in enzyme activity) is obtained by fitting data to the equation, Y=a+((b−a)/(1+(c/X)^d)). (Y=inhibition achieved for a particular dose; X=the dose in nM; a=minimum y or zero % inhibition; b=maximum y or 100% inhibition; c=is the IC50; d=is the slope). The result is rounded to one significant figure.

Assay [2] addresses T1, gelatinase A (MMP-2) (Homo sapiens, UniProt P08253).
T1 sequence (P08253 110-660): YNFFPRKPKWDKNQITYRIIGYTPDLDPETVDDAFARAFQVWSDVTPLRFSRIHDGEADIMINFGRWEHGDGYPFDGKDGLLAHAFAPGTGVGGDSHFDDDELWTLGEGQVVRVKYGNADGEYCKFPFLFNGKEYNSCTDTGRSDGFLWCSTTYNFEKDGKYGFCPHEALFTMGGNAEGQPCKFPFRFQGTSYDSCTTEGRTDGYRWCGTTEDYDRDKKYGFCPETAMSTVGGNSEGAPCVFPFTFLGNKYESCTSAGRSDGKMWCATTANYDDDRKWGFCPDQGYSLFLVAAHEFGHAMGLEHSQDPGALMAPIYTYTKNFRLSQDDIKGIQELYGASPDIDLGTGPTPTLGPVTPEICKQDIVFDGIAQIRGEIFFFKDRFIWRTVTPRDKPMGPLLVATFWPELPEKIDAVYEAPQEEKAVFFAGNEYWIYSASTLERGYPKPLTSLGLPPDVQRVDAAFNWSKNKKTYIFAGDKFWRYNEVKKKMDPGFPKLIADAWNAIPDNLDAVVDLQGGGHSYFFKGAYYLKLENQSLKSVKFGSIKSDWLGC
As to the kind of experiment: MMP-2 enzyme inhibition assay (coumarin-labelled peptide substrate). In kind it is biochemical. To be noted: read-out: IC50 MMP2. The method in brief:
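Recombinant human MMP-2, APMA-activated if necessary, run as for the MMP-9 protocol: McaPLGLDpaAR substrate (8 μM working dilution) in 100 mM Tris-HCl pH 7.6, 100 mM NaCl, 10 mM CaCl2, 0.05% Brij 35; ten 3-fold concentrations (100 μM–5.1 nM) in duplicate, 2 h at 37° C. Fluorescence ex 320/em 405 nm, unstopped; IC50 from four-parameter fit.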

SMILES strings stand for the structures. pIC50: −log10 of the molar value. Some results are limits rather than exact numbers.

Sequence of human ADAM17 (TACE) (P78536 215-824): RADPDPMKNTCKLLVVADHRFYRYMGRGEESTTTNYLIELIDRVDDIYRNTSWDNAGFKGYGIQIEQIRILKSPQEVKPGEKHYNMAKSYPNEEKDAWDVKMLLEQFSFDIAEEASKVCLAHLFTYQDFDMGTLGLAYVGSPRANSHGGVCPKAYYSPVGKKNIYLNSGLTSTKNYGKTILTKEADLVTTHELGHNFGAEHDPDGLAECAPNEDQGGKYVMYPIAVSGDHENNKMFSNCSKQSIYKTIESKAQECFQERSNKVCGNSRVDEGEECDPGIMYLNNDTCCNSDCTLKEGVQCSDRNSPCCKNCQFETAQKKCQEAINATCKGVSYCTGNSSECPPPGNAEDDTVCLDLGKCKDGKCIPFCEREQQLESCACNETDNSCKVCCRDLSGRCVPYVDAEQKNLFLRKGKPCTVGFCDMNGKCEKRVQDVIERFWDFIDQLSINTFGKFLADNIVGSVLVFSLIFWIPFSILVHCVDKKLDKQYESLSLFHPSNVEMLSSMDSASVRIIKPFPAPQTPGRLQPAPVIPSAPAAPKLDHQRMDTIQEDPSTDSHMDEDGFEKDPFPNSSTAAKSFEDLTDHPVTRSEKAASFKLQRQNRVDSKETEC

One may read the pIC50 as −log10 of the IC50, conventionally taken in molar units. With `O=CN(O)C(CCO)CS(=O)(=O)N1CCc2ccc(Cl)cc2C1` (stereo not shown) [Example 48, N-(1-{[(7-chloro-3,4-dihydroisoquinolin-2(1H)-yl)sulfonyl]-methyl}-3-hydroxypropyl)-N-hydroxyformamide], the figures for the pIC50 in assay [1] and in assay [2] were 6.57 and 7.11, respectively.
The like results for `O=CN(O)C(CO)CS(=O)(=O)N1CCc2cc(Cl)c(Cl)cc2C1` (stereo not shown) [Example 49, N-[2-[(6,7-dichloro-3,4-dihydroisoquinolin-2(1H)-yl)-sulfonyl]-1-(hydroxymethyl)ethyl]-N-hydroxyformamide] were, in that order, 6.62 and 7.96.
The like results for `CC(C)C(CS(=O)(=O)N1CCc2ccc(-c3ccc(F)cc3)cc2C1)N(O)C=O` (stereo not shown) [Example 50, N-[1-({[7-(4-fluorophenyl)-3,4-dihydroisoquinolin-2(1H)-yl]sulfonyl}methyl)-2-methylpropyl]-N-hydroxyformamide] were, in that order, 6.40 and 7.05.
As for `O=CN(O)C(CS(=O)(=O)N1CCc2ccc(F)cc2C1)c1ccoc1` (stereo not shown) [Example 52, N-[2-[(7-fluoro-3,4-dihydroisoquinolin-2(1H)-yl)sulfonyl]-1-(3-furyl)ethyl]-N-hydroxyformamide], the values for the pIC50 in assay [1] and in assay [2] were 7.04 and 6.53, respectively.
Take `O=CN(O)C(CS(=O)(=O)N1CCc2ccc(F)cc2C1)C1CCN(Cc2ccccc2)CC1` (stereo not shown) [Example 53, N-{1-(1-benzylpiperidin-4-yl)-2-[(7-fluoro-3,4-dihydro-isoquinolin-2(1H)-yl)sulfonyl]ethyl}-N-hydroxyformamide]: the pIC50 was 6.61 in assay [1] and 6.53 in assay [2].
In the same order, the values of `CC(C)CC(CS(=O)(=O)N1CCc2ccc(Br)cc2C1)N(O)C=O` (stereo not shown) [Example 55, N-(1-{[(7-bromo-3,4-dihydroisoquinolin-2(1H)-yl)-sulfonyl]methyl}-3-methylbutyl)-N-hydroxyformamide] are 6.80 and 7.62.
The like results for `CC(C)(CS(=O)(=O)N1CCc2ccc(Br)cc2C1)N(O)C=O` [Example 56, N-{2-[(7-bromo-3,4-dihydroisoquinolin-2(1H)-yl)sulfonyl]-1,1-dimethylethyl}-N-hydroxyformamide] were, in that order, less than 5.30 and 6.72.
`CC(C)(C)c1ccc2c(c1)CN(S(=O)(=O)CC(COCc1ccccc1)N(O)C=O)CC2` (stereo not shown) [Example 57, N-(2-(benzyloxy)-1-{[(7-tert-butyl-3,4-dihydroisoquinolin-2(1H)-yl)sulfonyl]methyl}ethyl)-N-hydroxyformamide]: the pIC50 in assay [1] and in assay [2] was less than 5.30 each time.
`O=CN(O)C(COCc1ccccc1)CS(=O)(=O)N1CCc2ccc(Cl)cc2C1` (stereo not shown) [Example 58, N-(2-(benzyloxy)-1-{[(7-chloro-3,4-dihydroisoquinolin-2(1H)-yl)sulfonyl]methyl}ethyl)-N-hydroxyformamide]: the figures for the pIC50 in assay [1] and in assay [2] were 7.25 and 7.70, respectively.
As to `O=CN(O)C(COCc1ccccc1)CS(=O)(=O)N1CCc2ccc(C(F)(F)F)cc2C1` (stereo not shown) [Example 59, N-[2-(benzyloxy)-1-({[7-(trifluoromethyl)-3,4-dihydro-isoquinolin-2(1H)-yl]sulfonyl}methyl)ethyl]-N-hydroxyformamide], the figures for the pIC50 in assay [1] and in assay [2] were less than 5.30 and 7.08, respectively.
Consider `O=CN(O)C(CS(=O)(=O)N1CCc2ccc(F)cc2C1)C1CCCC1` (stereo not shown) [Example 60, N-{1-cyclopentyl-2-[(7-fluoro-3,4-dihydroisoquinolin-2(1H)-yl)sulfonyl]ethyl}-N-hydroxyformamide], for which the pIC50 is 7.10 in assay [1] and 6.39 in assay [2].
In the same order, the values of `O=CN(O)C(COc1ccccc1)CS(=O)(=O)N1CCc2ccc(Cl)cc2C1` (stereo not shown) [Example 61, N-[2-[(7-chloro-3,4-dihydroisoquinolin-2(1H)-yl)sulfonyl]-1-(phenoxymethyl)ethyl]-N-hydroxyformamide] are 7.05 and 7.42.
Take `O=CN(O)C1(CS(=O)(=O)N2CCc3ccc(Cl)cc3C2)CCCC1` [Example 62, N-(1-{[(7-chloro-3,4-dihydroisoquinolin-2(1H)-yl)-sulfonyl]methyl}cyclopentyl)-N-hydroxyformamide]: the pIC50 in assay [1] was 6.05; in assay [2], 6.53.
In the same order, the values of `CCCCCC(C)(C)C(CS(=O)(=O)N1CCc2cc(C(F)(F)F)ccc2C1)N(O)C=O` (stereo not shown) [Example 63, N-[2,2-dimethyl-1-({[6-(trifluoromethyl)-3,4-dihydro-isoquinolin-2(1H)-yl]sulfonyl}methyl)heptyl]-N-hydroxyformamide] are less than 5.30 and less than 5.30.
In the same order, the values of `O=CN(O)C(CS(=O)(=O)N1CCc2ccc(Br)cc2C1)C1CCCC1` (stereo not shown) [Example 64, N-{2-[(7-bromo-3,4-dihydroisoquinolin-2(1H)-yl)sulfonyl]-1-cyclopentylethyl}-N-hydroxyformamide] are 7.04 and 7.38.
As for `CC(C)(C)C(CS(=O)(=O)N1CCc2ccc(Cl)cc2C1)N(O)C=O` (stereo not shown) [Example 65, N-(1-{[(7-chloro-3,4-dihydroisoquinolin-2(1H)-yl)sulfonyl]methyl}-2,2-dimethylpropyl)-N-hydroxyformamide], the values for the pIC50 in assay [1] and in assay [2] were 6.31 and 6.56, respectively.
In the same order, the values of `O=CN(O)C(CS(=O)(=O)N1CCc2ccc(-c3ccsc3)cc2C1)C1CCCC1` (stereo not shown) [Example 68, N-(1-cyclopentyl-2-{[7-(3-thienyl)-3,4-dihydroisoquinolin-2(1H)-yl]sulfonyl}ethyl)-N-hydroxyformamide] are 6.57 and 6.66.
As to `O=CN(O)C(CS(=O)(=O)N1CCc2ccc(-c3ccccc3)cc2C1)C1CCCC1` (stereo not shown) [Example 69, N-{1-cyclopentyl-2-[(7-phenyl-3,4-dihydroisoquinolin-2(1H)-yl)sulfonyl]ethyl}-N-hydroxyformamide], the pIC50 in assay [1] was 6.22; in assay [2] it was 6.28.
In the same order, the values of `O=CN(O)C(CS(=O)(=O)N1CCc2ccc(-c3cccc(O)c3)cc2C1)C1CCCC1` (stereo not shown) [Example 70, N-(1-cyclopentyl-2-{[7-(3-hydroxyphenyl)-3,4-dihydroisoquinolin-2(1H)-yl]sulfonyl}ethyl)-N-hydroxyformamide] are less than 5.30 and 5.81.
In the same order, the values of `O=CN(O)C(CS(=O)(=O)N1Cc2ccccc2C1)C1CC1` (stereo not shown) [Example 72, N-[1-cyclopropyl-2-(1,3-dihydro-2H-isoindol-2-ylsulfonyl)-ethyl]-N-hydroxyformamide] are 6.17 and 6.29.
In the same order, the values of `O=CN(O)C(CS(=O)(=O)N1CCc2ccc(Cl)cc2C1)C1CC1` (stereo not shown) [Example 73, N-{2-[(7-chloro-3,4-dihydroisoquinolin-2(1H)-yl)sulfonyl]-1-cyclopropylethyl}-N-hydroxyformamide] are 7.06 and 6.73.
In the case of `O=CN(O)C(CS(=O)(=O)N1CCc2cc(C(F)(F)F)ccc2C1)C1CC1` (stereo not shown) [Example 74, N-(1-cyclopropyl-2-{[6-(trifluoromethyl)-3,4-dihydro-isoquinolin-2(1H)-yl]sulfonyl}ethyl)-N-hydroxyformamide], the figures for the pIC50 in assay [1] and in assay [2] were less than 5.30 and 7.01, respectively.
For `O=CN(O)C(CS(=O)(=O)N1CCc2ccc(-c3ccc(F)cc3)cc2C1)C1CC1` (stereo not shown) [Example 75, N-(1-cyclopropyl-2-{[7-(4-fluorophenyl)-3,4-dihydro-isoquinolin-2(1H)-yl]sulfonyl}ethyl)-N-hydroxyformamide], the figures for the pIC50 in assay [1] and in assay [2] were 6.40 and 6.66, respectively.
